Tests used:
Assay type in all cases: cell-based
[1] = molecular target: T1, human TLR8 (Homo sapiens, UniProt Q9NR97); experiment: TLR8 inhibition reporter assay (HEK-Blue cells, SEAP reporter, R848 stimulation); conditions: HEK-Blue cells overexpressing human TLR8, SEAP reporter, R848 15.9 μM
T1 construct: host or cells: HEK-Blue cells
T1 sequence (Q9NR97 27-1041): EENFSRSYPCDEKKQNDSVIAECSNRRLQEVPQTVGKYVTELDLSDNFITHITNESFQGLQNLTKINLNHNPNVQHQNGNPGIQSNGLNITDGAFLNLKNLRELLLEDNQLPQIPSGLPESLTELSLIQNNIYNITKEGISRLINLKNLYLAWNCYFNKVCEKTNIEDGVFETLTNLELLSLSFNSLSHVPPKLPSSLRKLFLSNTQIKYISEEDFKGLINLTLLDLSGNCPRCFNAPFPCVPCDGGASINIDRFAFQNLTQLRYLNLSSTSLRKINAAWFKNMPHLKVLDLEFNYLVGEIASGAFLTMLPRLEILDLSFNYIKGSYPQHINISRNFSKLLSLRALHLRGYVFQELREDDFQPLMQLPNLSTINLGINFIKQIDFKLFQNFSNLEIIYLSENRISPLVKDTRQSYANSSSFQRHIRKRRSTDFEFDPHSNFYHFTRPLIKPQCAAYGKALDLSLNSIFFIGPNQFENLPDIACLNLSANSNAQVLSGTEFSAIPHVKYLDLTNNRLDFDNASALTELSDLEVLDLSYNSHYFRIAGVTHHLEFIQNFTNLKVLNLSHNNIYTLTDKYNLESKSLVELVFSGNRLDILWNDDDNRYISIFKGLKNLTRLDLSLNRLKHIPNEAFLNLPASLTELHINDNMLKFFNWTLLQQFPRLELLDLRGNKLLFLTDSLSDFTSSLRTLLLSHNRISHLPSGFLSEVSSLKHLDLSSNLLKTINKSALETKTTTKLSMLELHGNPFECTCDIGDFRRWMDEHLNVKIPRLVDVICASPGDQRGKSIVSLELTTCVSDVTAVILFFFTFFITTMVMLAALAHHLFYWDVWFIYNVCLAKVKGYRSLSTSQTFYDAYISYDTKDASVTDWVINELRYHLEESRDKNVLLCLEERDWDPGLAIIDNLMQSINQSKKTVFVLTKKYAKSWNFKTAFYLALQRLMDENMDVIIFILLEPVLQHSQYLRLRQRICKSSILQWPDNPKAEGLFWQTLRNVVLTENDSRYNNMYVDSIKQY
How it was run: (§1)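 Ligand levels: TLR7 gardiquimod 7.5 μM, TLR8 R848 15.9 μM, TLR9 ODN2006 5 nM, added after 30 min room-temperature compound pre-incubation at 0.05 nM-50 μM. Reporter SEAP read with HEK-Blue Detection reagent after 22 h, 37° C. Inhibition expressed as % reduction relative to agonist-plus-DMSO and known-inhibitor controls.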

[2] = molecular target: T2, human TLR9 (Homo sapiens, UniProt Q9NR96); experiment: TLR9 inhibition reporter assay (HEK-Blue cells, SEAP reporter, ODN2006 stimulation); conditions: HEK-Blue cells overexpressing human TLR9, SEAP reporter, ODN2006 5 nM
T2 construct: host or cells: HEK-Blue cells
T2 sequence (Q9NR96 26-1032): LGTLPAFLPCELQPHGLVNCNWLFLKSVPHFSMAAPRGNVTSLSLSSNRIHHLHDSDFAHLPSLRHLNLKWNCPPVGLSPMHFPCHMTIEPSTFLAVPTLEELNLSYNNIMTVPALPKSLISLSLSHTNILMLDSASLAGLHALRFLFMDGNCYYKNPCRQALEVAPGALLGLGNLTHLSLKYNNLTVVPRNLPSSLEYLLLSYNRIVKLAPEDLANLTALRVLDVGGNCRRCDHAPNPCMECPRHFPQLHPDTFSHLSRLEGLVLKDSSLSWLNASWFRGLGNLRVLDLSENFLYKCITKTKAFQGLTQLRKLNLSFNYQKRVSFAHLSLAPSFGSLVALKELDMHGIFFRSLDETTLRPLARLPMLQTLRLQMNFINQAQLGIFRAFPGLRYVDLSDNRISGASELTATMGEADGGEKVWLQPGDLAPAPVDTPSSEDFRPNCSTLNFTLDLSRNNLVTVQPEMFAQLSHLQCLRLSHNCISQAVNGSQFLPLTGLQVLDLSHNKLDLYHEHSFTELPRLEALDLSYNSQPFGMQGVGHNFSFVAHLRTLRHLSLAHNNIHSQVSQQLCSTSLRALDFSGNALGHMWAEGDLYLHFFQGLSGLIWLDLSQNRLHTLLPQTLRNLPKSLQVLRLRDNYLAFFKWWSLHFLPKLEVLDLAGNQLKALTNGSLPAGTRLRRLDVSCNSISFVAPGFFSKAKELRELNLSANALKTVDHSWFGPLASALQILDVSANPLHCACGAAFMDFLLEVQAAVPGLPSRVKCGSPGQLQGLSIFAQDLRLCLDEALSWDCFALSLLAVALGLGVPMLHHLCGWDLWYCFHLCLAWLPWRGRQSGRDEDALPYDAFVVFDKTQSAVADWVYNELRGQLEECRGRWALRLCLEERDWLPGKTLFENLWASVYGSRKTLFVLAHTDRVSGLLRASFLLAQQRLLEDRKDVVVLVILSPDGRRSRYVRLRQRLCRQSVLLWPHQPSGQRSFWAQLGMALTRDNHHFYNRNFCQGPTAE
How it was run: as §1

[3] = molecular target: T3, human TLR7 (Homo sapiens, UniProt Q9NYK1); experiment: TLR7 inhibition reporter assay (HEK-Blue cells, SEAP reporter, gardiquimod stimulation); conditions: HEK-Blue cells overexpressing human TLR7, SEAP reporter, gardiquimod 7.5 μM
T3 construct: host or cells: HEK-Blue cells
T3 sequence (Q9NYK1 27-1049): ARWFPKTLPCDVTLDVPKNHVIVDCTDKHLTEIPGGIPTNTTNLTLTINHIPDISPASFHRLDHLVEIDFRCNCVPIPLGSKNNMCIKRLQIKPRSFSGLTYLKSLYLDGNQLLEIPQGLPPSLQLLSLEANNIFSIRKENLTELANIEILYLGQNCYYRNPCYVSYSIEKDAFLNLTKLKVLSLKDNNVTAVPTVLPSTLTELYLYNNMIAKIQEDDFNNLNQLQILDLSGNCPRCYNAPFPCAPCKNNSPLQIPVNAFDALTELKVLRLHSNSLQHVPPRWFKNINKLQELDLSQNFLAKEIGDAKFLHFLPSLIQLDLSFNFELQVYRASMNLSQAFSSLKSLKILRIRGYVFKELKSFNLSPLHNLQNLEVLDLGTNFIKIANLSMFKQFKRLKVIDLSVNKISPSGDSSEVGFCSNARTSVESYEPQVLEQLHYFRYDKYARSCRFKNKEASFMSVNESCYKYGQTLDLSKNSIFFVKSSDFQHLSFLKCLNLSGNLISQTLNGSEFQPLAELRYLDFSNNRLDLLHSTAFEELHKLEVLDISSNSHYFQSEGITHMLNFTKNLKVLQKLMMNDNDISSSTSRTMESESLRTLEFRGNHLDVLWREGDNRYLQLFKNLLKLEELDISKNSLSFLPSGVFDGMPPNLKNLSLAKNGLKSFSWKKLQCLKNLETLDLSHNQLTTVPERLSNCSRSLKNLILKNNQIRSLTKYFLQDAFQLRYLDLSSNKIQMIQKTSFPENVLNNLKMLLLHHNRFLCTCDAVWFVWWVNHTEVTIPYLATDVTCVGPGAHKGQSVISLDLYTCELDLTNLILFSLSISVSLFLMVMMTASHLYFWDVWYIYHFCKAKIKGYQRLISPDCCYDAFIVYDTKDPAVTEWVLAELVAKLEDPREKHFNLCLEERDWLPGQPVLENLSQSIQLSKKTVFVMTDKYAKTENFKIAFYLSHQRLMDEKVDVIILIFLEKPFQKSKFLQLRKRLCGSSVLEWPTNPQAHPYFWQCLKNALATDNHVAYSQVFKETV
How it was run: as §1

SMILES | IC50 [1] | IC50 [2] | IC50 [3]
Cc1cc(-c2[nH]c3ccc(C4CN(CC(C)(C)O)CCO4)cc3c2C(C)C)cc(C)n1 (stereo not drawn) [Example 358] | 0.0019 µM | 4.84 µM | 0.091 µM
Cc1cc(-c2[nH]c3ccc(C4CCC(NC5COC5)CC4)cc3c2C(C)C)cc(C)n1 (stereo not drawn) [Example 61] | 0.0039 µM | 0.201 µM | 0.001 µM
Cc1cc(-c2[nH]c3ccc(C4CCC(N(C)C(=O)CN(C)C)CC4)cc3c2C(C)C)cn2ncnc12 (stereo not drawn) [Example 149] | 0.0046 µM | 2.3 µM | 0.00043 µM
CNC1CCC(c2ccc3[nH]c(-c4cn5ncnc5c(C)c4C)c(C(C)C)c3c2)CC1 (stereo not drawn) [Example 91] | 0.0027 µM | 2.7 µM | 0.00086 µM
COc1cc(-c2[nH]c3ccc(C4CCC(NC(=O)CNC5COC5)CC4)cc3c2C(C)C)cn2ncnc12 (stereo not drawn) [Example 137] | 0.0049 µM | 26.6 µM | 0.002 µM
COc1cc(-c2[nH]c3ccc(C4CCC(N5CC(O)C5)CC4)cc3c2C(C)C)cn2ncnc12 (single isomer, unassigned) [Example 20] | 0.00081 µM | 0.346 µM | 0.0003 µM
CNCC(=O)N1CCOC(c2ccc3[nH]c(-c4cn5ncnc5c(C)c4C)c(C(C)C)c3c2)C1 (stereo not drawn) [Example 341] | 0.005 µM | 5.97 µM | 0.002 µM
COc1ccc(-c2[nH]c3ccc(C4CCCN(C(=O)CN(C)C)C4)cc3c2C(C)C)cc1OC (stereo not drawn) [Example 195] | 0.043 µM | 2.21 µM | 0.02 µM
Cc1c(-c2[nH]c3ccc(C4CCC(N5CC(F)(F)C5)CC4)cc3c2C(C)C)cn2ncnc2c1C (stereo not drawn) [Example 24] | 0.021 µM | 24.9 µM | 0.007 µM
CNC(=O)CN1CCOC(c2ccc3[nH]c(-c4cc(C)nc(C)c4)c(C(C)C)c3c2)C1 (stereo not drawn) [Example 323] | 0.054 µM | > 50 µM | 0.035 µM
Cc1c(-c2[nH]c3ccc(C4CN(CC(=O)N(C)C)CCO4)cc3c2C(C)C)cn2ncnc2c1C (stereo not drawn) [Example 312] | 0.021 µM | > 50 µM | 0.046 µM
Cc1c(-c2[nH]c3ccc(CC4CCCN4C4COC4)cc3c2C(C)C)cn2cnnc2c1C (stereo not drawn) [Example 427] | 0.019 µM | 17.6 µM | 0.012 µM
CCN(C)C1CCC(c2ccc3[nH]c(-c4cc(C)c5ncnn5c4)c(C(C)C)c3c2)CC1 (stereo not drawn) [Example 62] | 0.0063 µM | 1.83 µM | 0.00098 µM
CNCC(=O)N1CC(c2ccc3[nH]c(-c4cc(OC)c5ncnn5c4)c(C(C)C)c3c2)C1 [Example 268] | 0.0059 µM | 0.396 µM | 0.00072 µM
Cc1c(-c2[nH]c3ccc(C4CC5CN(CC(=O)N(C)C)CC5C4)cc3c2C(C)C)cn2cnnc2c1C (stereo not drawn) [Example 520] | 0.066 µM | 17.7 µM | 0.029 µM
COc1cc(-c2[nH]c3ccc(CCC4CN(C)C4)cc3c2C(C)C)cn2ncnc12 [Example 438] | 0.037 µM | 2.1 µM | 0.005 µM
Cc1c(-c2[nH]c3ccc(C4CN(C5COC5)C4)cc3c2C(C)C)cn2cnnc2c1C [Example 540] | 0.036 µM | 18.6 µM | 0.019 µM
CNC(=O)CN1CCOC(c2ccc3[nH]c(-c4cc(OC)c5ncnn5c4)c(C(C)C)c3c2)C1 (stereo not drawn) [Example 310] | 0.057 µM | > 50 µM | 0.015 µM
COc1cc(-c2[nH]c3ccc(C4CCC(NC(=O)CN5CCOCC5)CC4)cc3c2C(C)C)cn2ncnc12 (stereo not drawn) [Example 142] | 0.014 µM | 4.41 µM | 0.002 µM
COc1cc(-c2[nH]c3ccc(C4CCCN(C(=O)C5CCN(C)CC5)C4)cc3c2C(C)C)cn2ncnc12 (stereo not drawn) [Example 194] | 0.023 µM | 12 µM | 0.006 µM
Cc1c(-c2[nH]c3ccc(C4CC(NC5COC5)C4)cc3c2C(C)C)cn2ncnc2c1C (stereo not drawn) [Example 575] | 0.0011 µM | 22.3 µM | 0.004 µM
COc1cc(-c2[nH]c3ccc(CCC4CN(C(=O)CN(C)C)C4)cc3c2C(C)C)cn2ncnc12 [Example 439] | 0.0063 µM | 2.24 µM | 0.001 µM
COc1cc(-c2[nH]c3ccc(C4CCC(NC(=O)CNC5COC5)CC4)cc3c2C(C)C)cn2ncnc12 (stereo not drawn) [Example 139] | 0.04 µM | > 50 µM | 0.018 µM
Cc1cc(-c2[nH]c3ccc(C4CN(C(=O)CN(C)C)C4)cc3c2C(C)C)cn2ncnc12 [Example 266, 2-(dimethylamino)-1-(3-(3-isopropyl-2-(8-methyl-[1,2,4]triazolo[1,5-a]pyridin-6-yl)-1H-indol-5-yl)azetidin-1-yl)ethan-1-one] | 0.0029 µM | 1.45 µM | 0.00031 µM
Cc1cc(-c2[nH]c3ccc(CC4CCCN4)cc3c2C(C)C)cn2ncnc12 (stereo not drawn) [Example 398, 2-{8-methyl-[1,2,4]triazolo[1,5-a]pyridin-6-yl}-3-(propan-2-yl)-5-[(pyrrolidin-2-yl)methyl]-1H-indole] | 0.0035 µM | 1.58 µM | 0.001 µM
